Laboratory results: patent US8680100B2, “Sulfonylhydrazide compounds for treating proliferative disorders” (Synta Pharmaceuticals Corp., priority 2008, dated 2014)

What follows are compounds tested on HSP70 (assay: Hsp70 Activity Essay (HSP70 ELISA on lysates of MDA435 cells)). Details: concentration that increases HSP70 to 50% of maximum increase by N′1,N′3-dimethyl-N′1,N′3-di(phenylcarbonothioyl)malonohydrazide.
Type: cell-based
Method: Each well was plated with MDA435 cells using DMEM 10% FBS Phenol-red free medium 2.5 k/well and incubated in a 37° C./5% CO2 incubator for a minimum of 6 hours to obtain good cell adherence.
Dilutions of each test compound were prepared in DMSO and DMEM 10% FBS Phenol-red free medium. The final concentration in each well was 1250 nM, 125 nM, 12.5 nM or 1.25 nM of test compound and 0.25% DMSO. 0.25% DMSO was used as a negative control. Lysis buffer (any lysis buffer suitable for use in the Assay Designs kit, e.g., such as that described in the kit instructions) was then added (amount used is one quarter of the volume already present in each plate) and the mixtures were then shaken for 10 minutes.
150 μL of “Can Get Signal” Immunoreaction Enhancer Solution (Solution 1 for primary antibody, TOYOBO, Catalogue No. NKB-101) were added to each of a series of ELISA plates. The ELISA plates were obtained from the HSP70 ELISA Kit (catalogue number EKS-700B) purchased from Assay Designs (Ann Arbor, Mich.). After the cells were lysed, 50 μL of lysate were taken from each well and added to an ELISA plate, resulting in a 4 fold dilution of the lysate (50 μL of lysate and 150 μL of Can Get Signal solution). The plates were covered with adhesive tape and incubated overnight at 4° C.;
In the morning, the liquid was aspirated from all wells and 400 μL of Washing Buffer made from 20× concentrate provided in the ELISA Kit and distilled water were added and then removed by aspiration. The addition of Washing Buffer and aspiration was repeated four times. After the fourth wash, the plate were inverted to a paper towel and carefully patted dry. 100 μL of HSP70 antibody provided in ELISA Kit were added to each well. Each well was covered with adhesive tape and incubated for one hour at room temperature. Washing Buffer was then added followed by removal with aspiration. The addition of Washing Buffer and aspiration was repeated four times, after which the plates were inverted and patted dry. 100 μL of HSP70 conjugate (provided in the ELISA Kit) were added to the wells. Each well was then covered with adhesive tape and incubated for one hour at room temperature. Washing Buffer was then added followed by removal with aspiration. The addition of Washing Buffer and aspiration was repeated four times, after which the plates were inverted and patted dry.
100 μL of the TMB Substrate (obtained from the ELISA Kit) were added to the wells (color development was visible in 1 minute). The wells were incubated until saturated color development (usually 5-15 minutes). Stop Solution 2 (provided in the ELISA Kit) was added in the same order TMB Substrate was added. The OD450 was then obtained using a plate reader. The EC50 for the compounds was calculated using N′^1,N′^3-dimethyl-N′^1,N′^3-di(phenylcarbonothioyl)malonohydrazide on the same plate as a control (concentration that increases HSP70 to 50% of maximum increase by N′^1,N′^3-dimethyl-N′^1,N′^3-di(phenylcarbonothioyl)malonohydrazide). The EC50 for each of the compounds tested is shown in example 1.

**Q.** For CCN(NC(=O)CS(=O)(=O)NN(CC)C(=S)C1CC1)C(=S)C1CC1 [Compound 29, N′-(cyclopropanecarbonothioyl)-2-(2-(cyclopropanecarbonothioyl)-2-ethylhydrazinyl)-N′-ethyl-2-oxoethanesulfonohydrazide], which EC50 is on record?
**A.** Its EC50 is 146 nM.

**Q.** CC(=S)N(C)NC(=O)CS(=O)(=O)NN(C)C(=S)c1ccccc1 [Compound 86, 2-(2-ethanethioyl-2-methylhydrazinyl)-N′-methyl-2-oxo-N′-(phenylcarbonothioyl)ethane-sulfonohydrazide] was tested. Which EC50 did it give?
**A.** The EC50 was 21 nM.

**Q.** For CN(NC(=O)C(=CN)S(=O)(=O)NN(C)C(=S)C1CC1)C(=S)C1CC1 [Compound 87, 1-amino-N′-(cyclopropanecarbonothioyl)-3-(2-(cyclopropanecarbonothioyl)-2-methyl-hydrazinyl)-N′-methyl-3-oxoprop-1-ene-2-sulfonohydrazide], which EC50 is on record?
**A.** Its EC50 is 111 nM.

**Q.** For CN(NC(=O)CS(=O)(=O)NN(C)C(=S)C1CC1)C(=S)C1CC1 [Compound 28, N′-(cyclopropanecarbonothioyl)-2-(2-(cyclopropanecarbonothioyl)-2-methylhydrazinyl)-N′-methyl-2-oxoethanesulfonohydrazide], which EC50 is on record?
**A.** Its EC50 is 98 nM.

**Q.** How did the EC50 turn out when CN(NC(=O)CS(=O)(=O)NN(C)C(=S)c1cccnc1)C(=S)c1ccccc1 [Compound 10, N′-methyl-2-(2-methyl-2-(phenylcarbonothioyl)hydrazinyl)-2-oxo-N′-(pyridine-3-carbonothioyl)-ethanesulfonohydrazide] was run?
**A.** Its EC50 is 180 nM.

**Q.** For CCN(NC(=O)CS(=O)(=O)NN(CC)C(=S)C1(C)CC1)C(=S)C1(C)CC1 [Compound 30, N′-ethyl-2-(2-ethyl-2-(1-methylcyclopropanecarbonothioyl) hydrazinyl)-N′-(1-methylcyclopropanecarbonothioyl)-2-oxoethanesulfonohydrazide], which EC50 is on record?
**A.** The EC50 was 49 nM.

**Q.** Which EC50 does the source give for CN(NC(=O)CS(=O)(=O)NN(C)C(=S)c1ccc(N2CCOCC2)cc1)C(=S)c1ccccc1 [Compound 43, N′-methyl-2-(2-methyl-2-(phenylcarbonothioyl)hydrazinyl)-N′-(4-morpholinophenylcarbonothioyl)-2-oxoethanesulfonohydrazide] here?
**A.** Its EC50 is 74 nM.

**Q.** How did the EC50 turn out when CN(NC(=O)CS(=O)(=O)NN(C)C(=S)c1cnccn1)C(=S)c1ccccc1 [Compound 9, N′-methyl-2-(2-methyl-2-(phenylcarbonothioyl)hydrazinyl)-2-oxo-N′-(pyrazine-2-carbonothioyl)-ethanesulfonohydrazide] was run?
**A.** Its EC50 is 971 nM.

**Q.** With CCN(CC)C(=S)N(C)NC(=O)CS(=O)(=O)NN(C)C(=S)c1ccccc1 [Compound 69, N,N′-diethyl-1-methyl-2-(2-(2-methyl-2-(phenylcarbonothioyl)hydrazinyl-sulfonyl)acetyl)hydrazine-carbothioamide] as the compound, how does the EC50 read?
**A.** Its EC50 is 85 nM.

**Q.** How did the EC50 turn out when CN(NS(=O)(=O)CC(=O)NN1CCCCC1=S)C(=S)c1ccccc1 [Compound 66, 2-(2-methyl-2-(phenylcarbonothioyl)hydrazinyl-sulfonyl)-N′-(2-thioxopiperidin-1-yl)acetamide] was run?
**A.** Its EC50 is 48 nM.

**Q.** How did the EC50 turn out when CN(NS(=O)(=O)CC(=O)NN(C)C(=S)c1ccccc1C(F)(F)F)C(=S)c1ccccc1 [Compound 81, N′-methyl-2-(2-methyl-2-(2-(trifluoromethyl)phenylcarbono-thioyl)hydrazinyl)-2-oxo-N′-(phenylcarbonothioyl)ethane-sulfonohydrazide] was run?
**A.** Its EC50 is 354 nM.

**Q.** How did the EC50 turn out when CN(NC(=O)CS(=O)(=O)NN(C)C(=S)N1CCCC1)C(=S)c1ccccc1 [Compound 51, N′-methyl-2-(2-methyl-2-(phenylcarbonothioyl)hydrazinyl)-2-oxo-N′-(pyrrolidine-1-carbonothioyl)-ethanesulfonohydrazide] was run?
**A.** Its EC50 is 57 nM.

**Q.** With CN(NS(=O)(=O)CC(=O)NN(C)C(=S)C1CC1)C(=S)c1cncs1 [Compound 76, 2-(2-(cyclopropanecarbonothioyl)-2-methylhydrazinyl)-N′-methyl-2-oxo-N′-(thiazole-5-carbonothioyl)-ethanesulfonohydrazide] as the compound, how does the EC50 read?
**A.** The EC50 was 1180 nM.

**Q.** CN(NS(=O)(=O)CC(=O)NN(C)C(=S)c1ccccc1F)C(=S)c1ccccc1 [Compound 82, 2-(2-(2-fluorophenylcarbonothioyl)-2-methylhydrazinyl)-N′-methyl-2-oxo-N′-(phenylcarbonothioyl)ethane-sulfonohydrazide] was tested. Which EC50 did it give?
**A.** The EC50 was 173 nM.

**Q.** Which EC50 does the source give for CN(NC(=O)CS(=O)(=O)NN(C)C(=S)c1ccccc1)C(=S)c1ccsc1 [Compound 58, N′-methyl-2-(2-methyl-2-(thiophene-3-carbonothioyl)hydrazinyl)-2-oxo-N′-(phenylcarbonothioyl)ethane-sulfonohydrazide] here?
**A.** Its EC50 is 77 nM.

**Q.** For CN(NC(=O)CS(=O)(=O)NN(C)C(=S)c1ccsc1)C(=S)c1ccccc1 [Compound 57, N′-methyl-2-(2-methyl-2-(phenylcarbonothioyl)hydrazinyl)-2-oxo-N′-(thiophene-3-carbonothioyl)ethanesulfono-hydrazide], which EC50 is on record?
**A.** The EC50 was 77 nM.

**Q.** With CCCCN(NS(=O)(=O)CC(=O)NN(C)C(=S)c1ccccc1)C(=S)c1ccccc1 [Compound 75, N′-butyl-2-(2-methyl-2-(phenylcarbonothioyl)hydrazinyl)-2-oxo-N′-(phenylcarbonothioyl) ethanesulfonohydrazide] as the compound, how does the EC50 read?
**A.** Its EC50 is 810 nM.

**Q.** With CN(NC(=O)CS(=O)(=O)NN(C)C(=S)C1CC1)C(=S)c1cnco1 [Compound 74, N′-(cyclopropanecarbonothioyl)-N′-methyl-2-(2-methyl-2-(oxazole-5-carbonothioyl)hydrazinyl)-2-oxoethanesulfonohydrazide] as the compound, how does the EC50 read?
**A.** Its EC50 is 301 nM.

**Q.** Which EC50 does the source give for CN(NS(=O)(=O)CC(=O)NN(C)C(=S)C1CC1)C(=S)c1ccccc1 [Compound 36, 2-(2-(cyclopropanecarbonothioyl)-2-methylhydrazinyl)-N′-methyl-2-oxo-N′-(phenylcarbonothioyl)ethane-sulfonohydrazide] here?
**A.** Its EC50 is 76 nM.

**Q.** How did the EC50 turn out when CCN(NS(=O)(=O)CC(=O)NN(C)C(=S)c1ccccc1)C(=S)N1CCOCC1 [Compound 50, N′-ethyl-2-(2-methyl-2-(phenylcarbonothioyl)hydrazinyl)-N′-(morpholine-4-carbonothioyl)-2-oxoethanesulfonohydrazide] was run?
**A.** The EC50 was 114 nM.

**Q.** Which EC50 does the source give for CSC(=S)N(C)NS(=O)(=O)CC(=O)NN(C)C(=S)c1ccccc1 [Compound 44, methyl 1-methyl-2-(2-(2-methyl-2-(phenylcarbonothioyl)hydrazinyl)-2-oxoethylsulfonyl) hydrazinecarbodithioate] here?
**A.** Its EC50 is 228 nM.

**Q.** For CCN(CC)C(=S)N(C)NS(=O)(=O)CC(=O)NN(C)C(=S)c1ccccc1 [Compound 68, N,N-diethyl-1-methyl-2-(2-(2-methyl-2-(phenylcarbonothioyl)hydrazinyl)-2-oxoethylsulfonyl)hydrazine-carbothioamide], which EC50 is on record?
**A.** The EC50 was 63 nM.

**Q.** For COCC(=S)N(C)NC(=O)CS(=O)(=O)NN(C)C(=S)c1ccccc1 [Compound 85, 2-(2-(2-methoxyethanethioyl)-2-methylhydrazinyl)-N′-methyl-2-oxo-N′-(phenylcarbonothioyl)ethane-sulfonohydrazide], which EC50 is on record?
**A.** Its EC50 is 60 nM.

**Q.** Which EC50 does the source give for CN(NC(=O)CS(=O)(=O)NN(C)C(=S)N1CCCCC1)C(=S)c1ccccc1 [Compound 52, N′-methyl-2-(2-methyl-2-(phenylcarbonothioyl)hydrazinyl)-2-oxo-N′-(piperidine-1-carbonothioyl)-ethanesulfonohydrazide] here?
**A.** The EC50 was 87 nM.

**Q.** How did the EC50 turn out when CN(NC(=O)CS(=O)(=O)NN(C)C(=S)c1ccc2c(c1)OCO2)C(=S)c1ccccc1 [Compound 42, N′-(benzo[d][1,3]dioxole-5-carbonothioyl)-N′-methyl-2-(2-methyl-2-(phenylcarbonothioyl)hydrazinyl)-2-oxoethanesulfonohydrazide] was run?
**A.** The EC50 was 56 nM.

**Q.** With CN(NC(=O)CS(=O)(=O)NN(C)C(=S)c1ccco1)C(=S)c1ccco1 [Compound 18, N′-(furan-2-carbonothioyl)-2-(2-(furan-2-carbonothioyl)-2-methylhydrazinyl)-N′-methyl-2-oxoethanesulfonohydrazide] as the compound, how does the EC50 read?
**A.** Its EC50 is 15 nM.

**Q.** CCN(CC)C(=S)N(C)NS(=O)(=O)CC(=O)NN(C)C(=S)C1CC1 [Compound 31, 2-(2-(2-(cyclopropanecarbonothioyl)-2-methylhydrazinyl)-2-oxoethylsulfonyl)-N,N′-diethyl-1-methylhydrazinecarbothioamide] was tested. Which EC50 did it give?
**A.** Its EC50 is 174 nM.
